Test results taken from PMC6277767, “Broad and Region-Specific Impacts of the Synthetic Cannabinoid CP 55,940 in Adolescent and Adult Female Mouse Brains” (Frontiers in Molecular Neuroscience, 2018).

Tested on: CD1 female mouse brain lipidome
Test: Brain-region lipid levels (HPLC/MS/MS lipidomics) 2 h after single i.p. 3 mg/kg CP 55,940 vs vehicle
Assay type: in vivo
Details: cerebellum, 3 mg/kg CP 55,940
Description: The Bloomington Institutional Animal Care and Use Committee of Indiana University reviewed and approved the animal procedures. Female mice from the CD1 strain were utilized to match our study examining THC’s effects on the brain lipidome ([Leishman et al., 2018]). Mice were given a single i.p. injection of either 3 mg/kg CP or 1:1:18 cremophor:ethanol:saline vehicle (please refer to the section “3 mg/kg CP Is Relevant for Synthetic Cannabinoid Abuse and Has Stronger Effects on the Female Mouse Brain Lipidome During Adolescence” for a justification of dose and use of female mice). Three different age groups were given injections: PND 35 and PND 50 adolescents, and adult mice (PND 113). At least eight mice in each age group received CP and at least eight received vehicle. Matching the THC study time course ([Leishman et al., 2018]), mice were sacrificed via rapid decapitation 2 h after injection. Brains were immediately removed and flash-frozen in liquid nitrogen, and then stored at -80°C until dissections were performed. Brains were dissected on an ice-cold dissection plate into the following regions: STR, HIPP, CER, THAL, CTX, HYP, MID, and STEM. These abbreviations for these brain areas will be used exclusively when discussing the results generated by these specific dissections. Each dissected area was immediately placed in liquid nitrogen and then stored at -80°C until used for lipid extraction.
Tissue extracts were performed as previously described ([Bradshaw et al., 2006]; [Stuart et al., 2013]; [Raboune et al., 2014]; [Leishman et al., 2016a],[b], [2017], [2018]). First, samples were shock frozen in liquid nitrogen, weighed, and transferred to a centrifuge tube. The mass of the largest sample was multiplied by 50 to determine how many milliliters of HPLC-grade methanol (Fisher, Fair Lawn, NJ, United States) to add. Then, samples were spiked with 500 pmol deuterium-labeled NAGly (d8NAGly; Cayman Chemical, Ann Arbor, MI, United States). Samples were placed on ice in darkness for 2 h then individually homogenized and centrifuged at 19,000 × g for 20 min at 20°C. Supernatants were diluted with HPLC water (purified in house) to make a solution of 75% water, 25% supernatant. Lipids were partially purified on C18 solid phase extraction columns (Agilent, Palo Alto, CA, United States). A series of four elutions with 1.5 mL of 60%, 75%, 85%, and 100% methanol were collected ([Stuart et al., 2013]; [Leishman et al., 2016a],[b], [2018]).
As previously described ([Bradshaw et al., 2006]; [Tan et al., 2006]; [Smoum et al., 2010]; [Stuart et al., 2013]; [Tortoriello et al., 2013]; [Raboune et al., 2014]; [Leishman et al., 2016a],[b], [2017], [2018]), samples were analyzed using an Applied Biosystems API 3000 triple quadrupole mass spectrometer with electrospray ionization (Foster City, CA, United States). Using an Agilent XDB-C18 reversed phase analytical column and optimized mobile phase gradients, 20 μL from each elution were chromatographed. Two Shimadzu 10ADvp pumps (Columbia, MD, United States) provided the pressure for gradient elution. Mobile phase A: 20% methanol, 80% water (v/v) and 1 mM ammonium acetate (Sigma, St. Louis, MO, United States). Mobile phase B: 100% methanol, 1 mM ammonium acetate. Every method run began with 0% mobile phase B, reached 100% mobile phase B flowing at 0.2 mL/min, and gradually returned to 0% mobile phase B.
This screening library will be referred to as the lipidome when discussing data from this study. HPLC/MS/MS data were analyzed using Analyst software (Applied Biosystems) ([Bradshaw et al., 2006]; [Tan et al., 2006]; [Stuart et al., 2013]; [Tortoriello et al., 2013]; [Raboune et al., 2014]; [Leishman et al., 2016a],[b], [2017], [2018]). Chromatograms (Supplementary Figure 3) were generated by determining the retention time of analytes from the analytical column with a [M-1] or [M+1] parent peak and a fragmentation peak corresponding to the programmed values. […]

CCCCCCC(C)(C)c1ccc([C@@H]2C[C@H](O)CC[C@H]2CCCO)c(O)c1 [CP 55,940]
PGE2: Magnitude (x Veh level) (adult): 0.70 x Veh level
PGF2α: Direction (relative to Veh) (adult): ↓
PGF2α: Magnitude (x Veh level) (adult): 0.67 x Veh level
phosphoLEA: Direction (relative to Veh) (adult): ↓
phosphoLEA: Magnitude (x Veh level) (adult): 0.71 x Veh level
2-arachidonoyl glycerol: Direction (relative to Veh) (PND 35): ↓
2-arachidonoyl glycerol: Magnitude (x Veh level) (PND 35): 0.80 x Veh level
2-linoleoyl glycerol: Direction (relative to Veh) (PND 35): ↓
2-linoleoyl glycerol: Magnitude (x Veh level) (PND 35): 0.75 x Veh level
6-ketoPGF1α: Magnitude (x Veh level) (PND 35): 0.61 x Veh level
Arachidonic acid: Direction (relative to Veh) (PND 35): ↓
Arachidonic acid: Magnitude (x Veh level) (PND 35): 0.92 x Veh level
N-arachidonoyl GABA: Direction (relative to Veh) (PND 35): ↓
N-arachidonoyl GABA: Magnitude (x Veh level) (PND 35): 0.72 x Veh level
N-arachidonoyl alanine: Direction (relative to Veh) (PND 35): ↓
N-arachidonoyl alanine: Magnitude (x Veh level) (PND 35): 0.71 x Veh level
N-arachidonoyl glycine: Direction (relative to Veh) (PND 35): ↓
N-arachidonoyl glycine: Magnitude (x Veh level) (PND 35): 0.89 x Veh level
N-arachidonoyl methionine: Direction (relative to Veh) (PND 35): ↓
N-arachidonoyl methionine: Magnitude (x Veh level) (PND 35): 0.63 x Veh level
N-arachidonoyl serine: Direction (relative to Veh) (PND 35): ↓
N-arachidonoyl serine: Magnitude (x Veh level) (PND 35): 0.74 x Veh level
N-arachidonoyl taurine: Direction (relative to Veh) (PND 35): ↓
N-arachidonoyl taurine: Magnitude (x Veh level) (PND 35): 0.87 x Veh level
N-arachidonoyl tyrosine: Direction (relative to Veh) (PND 35): ↓
N-arachidonoyl tyrosine: Magnitude (x Veh level) (PND 35): 0.70 x Veh level
N-docosahexaenoyl GABA: Direction (relative to Veh) (PND 35): ↓
N-docosahexaenoyl GABA: Magnitude (x Veh level) (PND 35): 0.81 x Veh level
N-docosahexaenoyl alanine: Direction (relative to Veh) (PND 35): ↓
N-docosahexaenoyl alanine: Magnitude (x Veh level) (PND 35): 0.72 x Veh level
N-docosahexaenoyl glycine: Direction (relative to Veh) (PND 35): ↓
N-docosahexaenoyl glycine: Magnitude (x Veh level) (PND 35): 0.92 x Veh level
N-docosahexaenoyl leucine: Direction (relative to Veh) (PND 35): ↑
N-docosahexaenoyl leucine: Magnitude (x Veh level) (PND 35): 1.44 x Veh level
N-docosahexaenoyl serine: Direction (relative to Veh) (PND 35): ↓
N-docosahexaenoyl serine: Magnitude (x Veh level) (PND 35): 0.72 x Veh level
N-docosahexaenoyl tyrosine: Direction (relative to Veh) (PND 35): ↓
N-docosahexaenoyl tyrosine: Magnitude (x Veh level) (PND 35): 0.84 x Veh level
N-linoleoyl glycine: Direction (relative to Veh) (PND 35): ↓
N-linoleoyl glycine: Magnitude (x Veh level) (PND 35): 0.89 x Veh level
N-linoleoyl leucine: Direction (relative to Veh) (PND 35): ↑
N-linoleoyl leucine: Magnitude (x Veh level) (PND 35): 1.29 x Veh level
N-linoleoyl phenylalanine: Direction (relative to Veh) (PND 35): ↑
N-linoleoyl phenylalanine: Magnitude (x Veh level) (PND 35): 1.28 x Veh level
N-oleoyl GABA: Direction (relative to Veh) (PND 35): ↓
N-oleoyl GABA: Magnitude (x Veh level) (PND 35): 0.83 x Veh level
N-oleoyl ethanolamine: Direction (relative to Veh) (PND 35): ↓
N-oleoyl ethanolamine: Magnitude (x Veh level) (PND 35): 0.81 x Veh level
N-oleoyl leucine: Direction (relative to Veh) (PND 35): ↑
N-oleoyl leucine: Magnitude (x Veh level) (PND 35): 1.25 x Veh level
N-oleoyl phenylalanine: Direction (relative to Veh) (PND 35): ↑
